Measurements reported in the supplement of paper PMC11061612.

How the values were obtained:
Capivasertib = compound: C1CN(CCC1(C(=O)N[C@@H](CCO)C2=CC=C(C=C2)Cl)N)C3=NC=NC4=C3C=CN4 [Capivasertib]
In short: (§1)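 Cancer cell lines were seeded into 1536-well plates in 7.5 μl medium (DMEM/F12 or RPMI, 10% FBS), held 24 hours at 37°C and 5% CO2, and dosed for 72 hours with final DMSO typically 0.2%. Luminescence from CellTiter-Glo 2.0, scaled between blank-well and DMSO-well means, served as viability. The single-agent IC50 was obtained from dose-response fits with a non-linear mixed effects model, each fit being a two-parameter logistic curve.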

AZD0156 = compound: CN(C)CCCOc1ccc(-c2ccc3ncc4c(c3c2)n(C2CCOCC2)c(=O)n4C)cn1 [AZD0156]; details: max 3 µM
In short: as §1

AZD1775 = compound: C=CCn1c(=O)c2cnc(Nc3ccc(N4CCN(C)CC4)cc3)nc2n1-c1cccc(C(C)(C)O)n1 [AZD1775]; details: max 3 µM
In short: as §1

Olaparib = compound: O=C(c1cc(Cc2n[nH]c(=O)c3ccccc23)ccc1F)N1CCN(C(=O)C2CC2)CC1 [Olaparib]
In short: as §1

AZD1390 = compound: CC(C)n1c(=O)n(C)c2cnc3cc(F)c(-c4ccc(OCCCN5CCCCC5)nc4)cc3c21 [AZD1390]; details: max 0.3 µM
In short: as §1

Palbociclib = compound: CC(=O)c1c(C)c2cnc(Nc3ccc(N4CCNCC4)cn3)nc2n(C2CCCC2)c1=O [Palbociclib]; details: max 10 µM
In short: as §1

Dasatinib = compound: CC1=C(C(=CC=C1)Cl)NC(=O)C2=CN=C(S2)NC3=CC(=NC(=N3)C)N4CCN(CC4)CCO [Dasatinib]; details: max 2 µM
In short: as §1

Lapatinib = compound: CS(=O)(=O)CCNCc1ccc(-c2ccc3ncnc(Nc4ccc(OCc5cccc(F)c5)c(Cl)c4)c3c2)o1 [Lapatinib]; details: max 10 µM
In short: as §1

Prexasertib = compound: COc1cccc(OCCCN)c1-c1cc(Nc2cnc(C#N)cn2)n[nH]1 [Prexasertib]; details: max 1 µM
In short: as §1

Savolitinib = compound: C[C@@H](c1ccc2nccn2c1)n1nnc2ncc(-c3cnn(C)c3)nc21 [Savolitinib]; details: max 1 µM
In short: as §1

SN-38 = compound: CCc1c2c(nc3ccc(O)cc13)-c1cc3c(c(=O)n1C2)COC(=O)[C@]3(O)CC [SN-38]; details: max 0.3 µM
In short: as §1

Taselisib = compound: Cc1nc(-c2cn3c(n2)-c2ccc(-c4cnn(C(C)(C)C(N)=O)c4)cc2OCC3)n(C(C)C)n1 [Taselisib]; details: max 10 µM
In short: as §1

AZD4320 = compound: CN(CC[C@H](CSC1=CC=CC=C1)NC2=C(C=C(C=C2)S(=O)(=O)NC(=O)C3=CC=C(C=C3)N4CCC(CC4)[C@H](C5=CC=CC=C5C6=CC=C(C=C6)Cl)O)S(=O)(=O)C(F)(F)F)CCO [AZD4320]; details: max 1 µM
In short: as §1

Trametinib = compound: CC(=O)Nc1cccc(-n2c(=O)n(C3CC3)c(=O)c3c(Nc4ccc(I)cc4F)n(C)c(=O)c(C)c32)c1 [Trametinib]; details: max 1 µM
In short: as §1

AZD8186 = compound: C[C@@H](Nc1cc(F)cc(F)c1)c1cc(C(=O)N(C)C)cc2c(=O)cc(N3CCOCC3)oc12 [AZD8186]
In short: as §1

Gefitinib = compound: COc1cc2ncnc(Nc3ccc(F)c(Cl)c3)c2cc1OCCCN1CCOCC1 [Gefitinib]; details: max 10 µM
In short: as §1

AZD5153 = compound: COc1nnc2ccc(N3CCC(c4ccc(OCCN5CCN(C)C(=O)[C@H]5C)cc4)CC3)nn12 [AZD5153]; details: max 1 µM
In short: as §1

Crizotinib = compound: C[C@@H](Oc1cc(-c2cnn(C3CCNCC3)c2)cnc1N)c1c(Cl)ccc(F)c1Cl [Crizotinib]; details: max 10 µM
In short: as §1

AZD6738 = compound: C[C@@H]1COCCN1C2=NC(=NC(=C2)C3(CC3)[S@](=N)(=O)C)C4=C5C=CNC5=NC=C4 [AZD6738]; details: max 10 µM
In short: as §1

Selumetinib = compound: Cn1cnc2c(F)c(Nc3ccc(Br)cc3Cl)c(C(=O)NOCCO)cc21 [Selumetinib]; details: max 10 µM
In short: as §1

Alisertib = compound: COc1cc(Nc2ncc3c(n2)-c2ccc(Cl)cc2C(c2c(F)cccc2OC)=NC3)ccc1C(=O)O [Alisertib]; details: max 10 µM
In short: as §1

AZD2811 = compound: CCN(CCO)CCCOc1ccc2c(Nc3cc(CC(=O)Nc4cccc(F)c4)[nH]n3)ncnc2c1 [AZD2811]; details: max 1 µM
In short: as §1

AZD7648 = compound: Cc1cc2ncnn2cc1Nc1ncc2c(n1)n(C1CCOCC1)c(=O)n2C [AZD7648]; details: max 10 µM
In short: as §1

AZD5991 = compound: Cc1c2c(nn1C)CSCc1cc(n(C)n1)CSc1cc(c3ccccc3c1)OCCCc1c(C(=O)O)n(C)c3c-2c(Cl)ccc13 [AZD5991]; details: max 1 µM
In short: as §1

Venetoclax = compound: CC1(C)CCC(CN2CCN(c3ccc(C(=O)NS(=O)(=O)c4ccc(NCC5CCOCC5)c([N+](=O)[O-])c4)c(Oc4cnc5[nH]ccc5c4)c3)CC2)=C(c2ccc(Cl)cc2)C1 [Venetoclax]; details: max 1 µM
In short: as §1

Paclitaxel = compound: CC(=O)O[C@H]1C(=O)[C@@]2(C)[C@H]([C@H](OC(=O)c3ccccc3)[C@]3(O)C[C@H](OC(=O)[C@H](O)[C@@H](NC(=O)c4ccccc4)c4ccccc4)C(C)=C1C3(C)C)[C@]1(OC(C)=O)CO[C@@H]1C[C@@H]2O [Paclitaxel]; details: max 3 µM
In short: as §1

AZD5363 = compound: C1CN(CCC1(C(=O)N[C@@H](CCO)C2=CC=C(C=C2)Cl)N)C3=NC=NC4=C3C=CN4 [AZD5363]; details: max 10 µM
In short: as §1

[1] = compound: O=C(Nc1ccc2[nH]nc(-c3ccncc3)c2c1)[C@@H]1CCN(CC(=O)N2CCN(c3ccc(-c4ncccn4)cc3)CC2)C1; details: max 5 µM
In short: as §1

MK-2206 = compound: NC1(c2ccc(-c3nc4ccn5c(=O)[nH]nc5c4cc3-c3ccccc3)cc2)CCC1 [MK-2206]; details: max 10 µM
In short: as §1

Gemcitabine = compound: Nc1ccn([C@@H]2O[C@H](CO)[C@@H](O)C2(F)F)c(=O)n1 [Gemcitabine]; details: max 0.3 µM
In short: as §1

Etoposide = compound: COc1cc([C@@H]2c3cc4c(cc3[C@@H](O[C@@H]3O[C@@H]5CO[C@@H](C)O[C@H]5[C@H](O)[C@H]3O)[C@H]3COC(=O)[C@H]23)OCO4)cc(OC)c1O [Etoposide]; details: max 10 µM
In short: as §1

Carboplatin = compound: C1CC(C1)(C(=O)[O-])C(=O)[O-].N.N.[Pt+2] [Carboplatin]; details: max 10 µM
In short: as §1

Doxorubicin = compound: COc1cccc2c1C(=O)c1c(O)c3c(c(O)c1C2=O)C[C@@](O)(C(=O)CO)C[C@@H]3O[C@H]1C[C@H](N)[C@H](O)[C@H](C)O1 [Doxorubicin]; details: max 1 µM
In short: as §1

5-Fluorouracil = compound: O=c1[nH]cc(F)c(=O)[nH]1 [5-Fluorouracil]; details: max 20 µM
In short: as §1

SRA737 = compound: N#Cc1cnc(Nc2cc(NC[C@H]3CNCCO3)c(C(F)(F)F)cn2)cn1 [SRA737]; details: max 10 µM
In short: as §1

SG3199 = compound: CC1=CN2[C@@H](C1)C=NC3=CC(=C(C=C3C2=O)OC)OCCCCCOC4=C(C=C5C(=C4)N=C[C@@H]6CC(=CN6C5=O)C)OC [SG3199]; details: max 0.001 µM
In short: as §1

Cell Line | IC50, cell viability 72 h (Capivasertib; max 3 µM) [nM] | IC50, cell viability 72 h (AZD0156) [nM] | IC50, cell viability 72 h (AZD1775) [nM] | IC50, cell viability 72 h (Olaparib; max 3 µM) [nM] | IC50, cell viability 72 h (AZD1390) [nM] | IC50, cell viability 72 h (Palbociclib) [nM] | IC50, cell viability 72 h (Dasatinib) [nM] | IC50, cell viability 72 h (Lapatinib) [nM] | IC50, cell viability 72 h (Prexasertib) [nM] | IC50, cell viability 72 h (Capivasertib; max 10 µM) [nM] | IC50, cell viability 72 h (Savolitinib) [nM] | IC50, cell viability 72 h (SN-38) [nM] | IC50, cell viability 72 h (Taselisib) [nM] | IC50, cell viability 72 h (AZD4320) [nM] | IC50, cell viability 72 h (Trametinib) [nM] | IC50, cell viability 72 h (AZD8186; max 3 µM) [nM] | IC50, cell viability 72 h (Gefitinib) [nM] | IC50, cell viability 72 h (AZD5153) [nM] | IC50, cell viability 72 h (Crizotinib) [nM] | IC50, cell viability 72 h (AZD6738) [nM] | IC50, cell viability 72 h (Selumetinib) [nM] | IC50, cell viability 72 h (Alisertib) [nM] | IC50, cell viability 72 h (AZD2811) [nM] | IC50, cell viability 72 h (AZD7648) [nM] | IC50, cell viability 72 h (AZD5991) [nM] | IC50, cell viability 72 h (Venetoclax) [nM] | IC50, cell viability 72 h (Paclitaxel) [nM] | IC50, cell viability 72 h (AZD5363) [nM] | IC50, cell viability 72 h [1] [nM] | IC50, cell viability 72 h (MK-2206) [nM] | IC50, cell viability 72 h (Gemcitabine) [nM] | IC50, cell viability 72 h (Etoposide) [nM] | IC50, cell viability 72 h (Carboplatin) [nM] | IC50, cell viability 72 h (Doxorubicin) [nM] | IC50, cell viability 72 h (AZD8186; max 10 µM) [nM] | IC50, cell viability 72 h (5-Fluorouracil) [nM] | IC50, cell viability 72 h (Olaparib; max 10 µM) [nM] | IC50, cell viability 72 h (SRA737) [nM] | IC50, cell viability 72 h (SG3199) [nM]
NCI-H1869 (Non-Small Cell Lung Carcinoma) | > 3000 | > 3000 | > 3000 | > 3000 | – | – | – | – | – | – | – | – | – | – | – | – | – | – | – | – | – | – | – | – | – | – | – | – | – | – | – | – | – | – | – | – | – | – | –
RC-K8 (B-Cell Non-Hodgkin's Lymphoma) | – | > 3000 | > 3000 | > 3000 | > 300 | > 10000 | > 2000 | > 10000 | 14.5 | > 10000 | > 1000 | 13.4 | 7690 | 856 | > 1000 | > 3000 | > 10000 | 100 | > 10000 | 1630 | > 10000 | 3000 | > 1000 | > 10000 | > 1000 | > 1000 | – | – | – | – | – | – | – | – | – | – | – | – | –
Ramos-2G6-4C10 (Burkitt's Lymphoma) | – | > 3000 | 307 | – | > 300 | > 10000 | > 2000 | > 10000 | 10.5 | – | > 1000 | 78.3 | > 10000 | > 1000 | > 1000 | – | > 10000 | 389 | > 10000 | 3090 | > 10000 | > 10000 | > 1000 | > 10000 | 168 | > 1000 | 15.9 | > 10000 | > 5000 | 5610 | > 300 | 9170 | > 10000 | 684 | > 10000 | > 20000 | > 10000 | 3720 | > 1
T98G (Glioblastoma) | – | > 3000 | 1050 | – | > 300 | > 10000 | 287 | > 10000 | 31 | – | > 1000 | > 300 | 5870 | > 1000 | > 1000 | – | > 10000 | > 1000 | > 10000 | 2590 | > 10000 | > 10000 | > 1000 | > 10000 | > 1000 | > 1000 | 14.6 | > 10000 | > 5000 | > 10000 | 119 | > 10000 | > 10000 | > 1000 | 5450 | > 20000 | > 10000 | 2040 | > 1
TE-9 (Esophageal Squamous Cell Carcinoma) | – | > 3000 | 1150 | – | > 300 | > 10000 | > 2000 | > 10000 | 548 | – | > 1000 | > 300 | > 10000 | > 1000 | > 1000 | – | > 10000 | > 1000 | > 10000 | > 10000 | > 10000 | > 10000 | > 1000 | > 10000 | > 1000 | > 1000 | 68 | > 10000 | > 5000 | > 10000 | > 300 | > 10000 | > 10000 | > 1000 | > 10000 | > 20000 | > 10000 | > 10000 | > 1
UM-UC-3 (Bladder Carcinoma) | – | > 3000 | > 3000 | – | > 300 | > 10000 | > 2000 | > 10000 | 799 | – | > 1000 | 15.3 | 8320 | > 1000 | > 1000 | – | > 10000 | > 1000 | > 10000 | > 10000 | > 10000 | > 10000 | > 1000 | > 10000 | > 1000 | > 1000 | 66 | > 10000 | > 5000 | > 10000 | 58.2 | 3450 | > 10000 | > 1000 | > 10000 | > 20000 | > 10000 | > 10000 | > 1
